These results are taken from patent US11234997B2, “Antibacterial activity of galactooligosaccharide and xylitol in dermatological treatments” (ROTTAPHARM SPA, priority 2017, dated 2022).

Experiment [1] relates to S. aureus 815 (clinical strain). Put plainly: Planktonic phase growth reduction (OD600). As to conditions: GOS 0%. It is filed as cell-based, Staphylococcus aureus. The procedure:
(§1) Galactooligosaccharide and xylitol were evaluated alone and in combination at different concentrations (concentrations: 0, 1, 2.5 and 5%) to affect bacterial planktonic production and biofilm-forming ability of standardized broth cultures of S. aureus 815 (clinical strain) and S. epidermidis 317 (clinical strain) was assessed. Different concentrations of galactooligosaccharide, xylitol and their combination, were added to a 96 well plate to evaluate their in vitro effect on S. aureus and S. epidermidis bacterial planktonic population. The overnight bacterial inocula were prepared in Tryptic soy broth (TSB), refreshed in the same medium and adjusted to OD600=0.12 (approximately 5×10^6 CFU/ml) for the experiments. For the controls, galactooligosaccharide and xylitol were also assayed alone. The plates were incubated for t=3, and 6 h at 37° C. in aerobic conditions. Each determination was performed in duplicate for three independent experiments and the biomass was evaluated using a safranin staining method. After each time of incubation, the reduction of the OD600 was evaluated in respect to the controls and the colony forming units (CFU)/ml at 0 and 24 h were detected. Table 3 outlines the percentage reduction of S. aureus 815 and S. epidermidis 317 growth in planktonic phase in the presence of galactooligosaccharide, xylitol and their combinations at different concentrations (OD600) after 3 and 6 h.

The subject of experiment [2] is S. epidermidis 317 (clinical strain). Put plainly: Planktonic phase growth reduction (OD600). It is filed as cell-based, Staphylococcus epidermidis. The note with it: GOS 0%. The procedure: as §1
For experiment [3] the test system is unchanged. As to the kind of experiment: Biofilm phase reduction (safranin staining, OD492). As to conditions: GOS 0%; for percentage of biofilm reduction (anti-adhesive): 3 h; for percentage of biofilm reduction (anti-biofilm): 24 h. It is filed as cell-based, Staphylococcus epidermidis. How it is done: (§2) Galactooligosaccharide and xylitol were evaluated alone and in combination at different concentrations (concentrations: 0, 1, 2.5 and 5%) to affect bacterial planktonic production and biofilm-forming ability of standardized broth cultures of S. aureus 815 (clinical strain) and S. epidermidis 317 (clinical strain) was assessed. Bacterial suspensions grown in TSB supplemented with 0.5% (v/v) glucose at logarithmic phase, were incubated on 96 flat-bottomed microliter plates in the presence of galactooligosaccharide or xylitol or their combination at different concentrations or TSB (control). After incubation for 3 h and 24 h at 37° C., each well was washed twice with sterile PBS, air-dried, stained for 1 min with 0.1% safranin, and washed with PBS. The stained biofilm were re-suspended in 200 μl ethanol (95% v/v), and OD492 was measured by spectrophotometry using an ELISA reader. Table 4 outlines the percentage of biofilm reduction (anti-adhesive (3 h) and anti-biofilm (24 h)) of S. aureus 815 and S. epidermidis 317 in the presence of galactooligosaccharide, xylitol and their combinations at different concentrations.

Experiment [4] concerns S. aureus 815 (clinical strain). As to the kind of experiment: Biofilm phase reduction (safranin staining, OD492). Type of experiment: cell-based, Staphylococcus aureus. The note with it: GOS 0%; for percentage of biofilm reduction (anti-adhesive): 3 h; for percentage of biofilm reduction (anti-biofilm): 24 h. How it is done:
as §2

With `OC[C@@H](O)[C@H](O)[C@@H](O)CO` [Xylitol, xylitol], the “percentage reduction of growth in planktonic phase (OD600)” value in experiment [1] (xylitol 1%, 3 h) is listed as 14.38%; in experiment [1] (xylitol 1%, 6 h), 15.86%; in experiment [1] (xylitol 2.5%, 3 h) it was 23.93%; in experiment [1] (xylitol 2.5%, 6 h), 27.80%; in experiment [1] (xylitol 5%, 3 h), 26.70%; in experiment [1] (xylitol 5%, 6 h), 35.13%. Moreover, the “percentage reduction of growth in planktonic phase (OD600)” value in experiment [2] (xylitol 1%, 3 h) amounted to 13.40%; in experiment [2] (xylitol 1%, 6 h), 22.11%; in experiment [2] (xylitol 2.5%, 3 h) it was 19.36%; in experiment [2] (xylitol 2.5%, 6 h) it was 28.57%; in experiment [2] (xylitol 5%, 3 h), 27.13%; in experiment [2] (xylitol 5%, 6 h), 29.99%. The “percentage of biofilm reduction (anti-adhesive)” value in experiment [3] (xylitol 1%) is reported as 1.00%; in experiment [3] (xylitol 2.5%), 10.64%; in experiment [3] (xylitol 5%) it was 14.16%; in experiment [4] (xylitol 1%), 21.61%; in experiment [4] (xylitol 2.5%), 28.81%; in experiment [4] (xylitol 5%) it was 36.98%. The “percentage of biofilm reduction (anti-biofilm)” value in experiment [3] (xylitol 1%) worked out at 22.81%; in experiment [3] (xylitol 2.5%), 22.18%; in experiment [3] (xylitol 5%), 5.67%; in experiment [4] (xylitol 1%), 51.68%; in experiment [4] (xylitol 2.5%), 47.8%; in experiment [4] (xylitol 5%), 56.02%.
